pIC50: −log10 of the molar value.
Legend:
DENV2 = experiment: Antiviral activity in DENV2-infected Huh7 cells, infectious virus in supernatant by plaque assay; type: cell-based, dengue virus; conditions: Dengue virus, Huh-7, DENV2-infected Huh7 cells
dengue virus = experiment: Initial screening of hit compounds for anti-dengue activity in tissue culture cells (Table S1); type: cell-based; conditions: viral titer relative to vehicle, tissue culture cell lines (BHK-21 48 hpi, Fig. S1; Huh7, Fig. 2C, 3C, 4C)
BHK-21 and Huh7 cells = experiment: Cell viability by WST assay in uninfected cells (Table S1); type: cell-based; conditions: cell viability relative to vehicle at these doses
Protocol: Supplementary file : TABLE S1 Summary of hits for lead compounds ARDP0006 and ST-148 screened for anti-dengue activity in tissue culture cells. Hit compounds were tested for anti-dengue activity and cell toxicity in tissue culture cell lines. Antiviral activity is summarized as follows: −, not antiviral, with titer greater than 50% of vehicle; +, weakly antiviral, with titer between 20 and 50% of vehicle; ++, moderately antiviral, with titer between 5 and 20% of vehicle; +++, highly antiviral, with titer less than 5% of vehicle. Toxicity at these doses is represented as follows: −, nontoxic, with cell viability greater than 80% of vehicle; +, mild toxicity, with cell viability between 60 and 80% of vehicle; +++, high toxicity, with cell viability less than 60% of vehicle. Data summarized here are depicted graphically in Fig. S1 and Fig. 2C, 3C, and [4]C. […]
Supplementary file : FIG S1 Initial screening of eliminated hit compounds for anti-dengue activity in tissue culture cells. […] Cell viability in uninfected cells in the presence of compounds for 48 h was measured by WST assay (gray). […]
Mock-infected wells were used to determine cell viability in the presence of chemical compounds compared to 1% DMSO vehicle control. Cell viability was determined using the WST-1 kit (Abcam) per the manufacturer’s instructions. […]

COc1cc2c(Nc3ccc(Br)cc3F)ncnc2cc1OCC1CCN(C)CC1 [Vandetanib, vandetanib]
IC90 (DENV2; from dose-response curve fit, 24 hpi): 3600 nM | pIC50 (DENV2; single infectious cycle, plaque assay at 24 hpi, read-out: IC50 of viral inhibition (infectious extracellular virus)): 5.80 | Antiviral (dengue virus): ++ (moderately antiviral, with titer between 5 and 20% of vehicle) | Toxicity (BHK-21 and Huh7 cells): − (nontoxic, with cell viability greater than 80% of vehicle)

Source: publication PMC7667029, “A Targeted Computational Screen of the SWEETLEAD Database Reveals FDA-Approved Compounds with Anti-Dengue Viral Activity” (mBio, 2020)
